Reference: the supplement of paper PMC10307832

Key:
Test in all cases: relative viability (nuclei count vs DMSO), 5 days (fraction); higher = more cells survive
Bosutinib + Foretinib = compound: COc1cc(Nc2c(C#N)cnc3cc(OCCCN4CCN(C)CC4)c(OC)cc23)c(Cl)cc1Cl [Bosutinib] + COc1cc2c(Oc3ccc(NC(=O)C4(C(=O)Nc5ccc(F)cc5)CC4)cc3F)ccnc2cc1OCCCN1CCOCC1 [Foretinib] (partner 0.25 µM)
How it was run: (§1)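 Values are medians from duplicate plates. Each reflects relative viability, defined as the nuclei count of treated wells over that of vehicle wells. Lung cancer cell lines in 1536-well plates were pin-tool dosed one day after seeding with one drug alone or with a fixed anchor-drug dose plus five library-drug doses (not always all listed) in √10 steps, then fixed, stained and imaged at 4× after 5 days.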

Bosutinib + OSI-027 = compound: COc1cc(Nc2c(C#N)cnc3cc(OCCCN4CCN(C)CC4)c(OC)cc23)c(Cl)cc1Cl [Bosutinib] + COc1cccc2cc(-c3nc([C@H]4CC[C@H](C(=O)O)CC4)n4ncnc(N)c34)[nH]c12 [OSI-027] (partner 0.5 µM)
How it was run: as §1

Bosutinib + Crizotinib = compound: COc1cc(Nc2c(C#N)cnc3cc(OCCCN4CCN(C)CC4)c(OC)cc23)c(Cl)cc1Cl [Bosutinib] + C[C@@H](Oc1cc(-c2cnn(C3CCNCC3)c2)cnc1N)c1c(Cl)ccc(F)c1Cl [Crizotinib] (partner 1 µM)
How it was run: as §1

Bosutinib + Alpelisib = compound: COc1cc(Nc2c(C#N)cnc3cc(OCCCN4CCN(C)CC4)c(OC)cc23)c(Cl)cc1Cl [Bosutinib] + Cc1nc(NC(=O)N2CCC[C@H]2C(N)=O)sc1-c1ccnc(C(C)(C)C(F)(F)F)c1 [Alpelisib] (partner 2 µM)
How it was run: as §1

Bosutinib + Phenformin = compound: COc1cc(Nc2c(C#N)cnc3cc(OCCCN4CCN(C)CC4)c(OC)cc23)c(Cl)cc1Cl [Bosutinib] + N=C(N)NC(=N)NCCc1ccccc1 [Phenformin] (partner 250 µM)
How it was run: as §1

Cell Line | relative viability (Bosutinib + Foretinib; first compound 0.01 µM) | relative viability (Bosutinib + Foretinib; first compound 0.03162 µM) | relative viability (Bosutinib + Foretinib; first compound 0.1 µM) | relative viability (Bosutinib + Foretinib; first compound 1 µM) | relative viability (Bosutinib + OSI-027; first compound 0.01 µM) | relative viability (Bosutinib + OSI-027; first compound 0.03162 µM) | relative viability (Bosutinib + OSI-027; first compound 0.1 µM) | relative viability (Bosutinib + OSI-027; first compound 1 µM) | relative viability (Bosutinib + Crizotinib; first compound 0.01 µM) | relative viability (Bosutinib + Crizotinib; first compound 0.03162 µM) | relative viability (Bosutinib + Crizotinib; first compound 0.1 µM) | relative viability (Bosutinib + Crizotinib; first compound 1 µM) | relative viability (Bosutinib + Alpelisib; first compound 0.01 µM) | relative viability (Bosutinib + Alpelisib; first compound 0.03162 µM) | relative viability (Bosutinib + Alpelisib; first compound 0.1 µM) | relative viability (Bosutinib + Alpelisib; first compound 1 µM) | relative viability (Bosutinib + Phenformin; first compound 0.01 µM) | relative viability (Bosutinib + Phenformin; first compound 0.03162 µM) | relative viability (Bosutinib + Phenformin; first compound 0.1 µM) | relative viability (Bosutinib + Phenformin; first compound 1 µM)
NCI-H3122 | 1.04 | 0.979 | 0.926 | 0.993 | 1.05 | 1.04 | 1.03 | 1.17 | 0.287 | 0.282 | 0.328 | 0.322 | 0.769 | 0.797 | 0.821 | 0.993 | 0.399 | 0.375 | 0.35 | 0.3
PC-3 [JPC-3] | 1 | 0.993 | 1.05 | 0.759 | 0.812 | 0.685 | 0.745 | 0.54 | 0.899 | 0.939 | 0.978 | 0.942 | 0.962 | 1.03 | 1.02 | 0.937 | 0.481 | 0.506 | 0.43 | 0.441
PC-14 | 0.963 | 0.975 | 0.98 | 0.255 | 0.961 | 0.688 | 0.773 | 0.192 | 0.807 | 0.928 | 0.788 | 0.313 | 0.91 | 0.9 | 0.828 | 0.323 | 0.539 | 0.585 | 0.5 | 0.277
RERF-LC-KJ | 0.893 | 0.888 | 0.815 | 0.867 | 0.594 | 0.59 | 0.607 | 0.473 | 0.863 | 0.827 | 0.846 | 0.88 | 0.702 | 0.834 | 0.756 | 0.678 | 0.407 | 0.427 | 0.42 | 0.387
SK-LU-1 | 0.841 | 0.85 | 0.813 | 0.449 | 0.335 | 0.362 | 0.331 | 0.222 | 0.9 | 0.819 | 0.807 | 0.48 | 0.949 | 1.31 | 1.12 | 0.46 | 0.538 | 0.473 | 0.507 | 0.303
SK-MES-1 | 0.966 | 0.955 | 0.97 | 0.747 | 0.64 | 0.681 | 0.671 | 0.38 | 0.954 | 1.03 | 0.997 | 0.96 | 0.876 | 0.971 | 0.999 | 1.06 | 0.66 | 0.686 | 0.632 | 0.502
SW 1573 | 0.913 | 0.825 | 0.693 | 0.858 | 0.695 | 0.67 | 0.656 | 0.612 | 0.655 | 0.813 | 0.917 | 0.782 | 0.834 | 0.787 | 0.767 | 0.65 | 0.411 | 0.357 | 0.358 | 0.27
UMC-11 | 0.979 | 1.07 | 1.03 | 0.94 | 0.48 | 0.478 | 0.423 | 0.402 | 0.597 | 0.622 | 0.555 | 0.579 | 1 | 1.04 | 0.934 | 0.847 | 0.321 | 0.312 | 0.312 | 0.247
